Assay results from patent publication US20240358731A1, “SUMO PATHWAY AS AN OXYGEN SENSOR RELEVANT TO THE PATHOPHYSIOLOGY OF PULMONARY ARTERY HYPERTENSION AND CARDIAC ARRHYTHMIA” (Northeastern University, priority 2023, published 2024).
Entries after “also recorded” stand apart in the source; their conditions may differ.

T1: SUMO activating enzyme (SAE) (Homo sapiens, UniProt Q9UBE0+Q9UBT2)
T1 sequence (Q9UBE0 1-346): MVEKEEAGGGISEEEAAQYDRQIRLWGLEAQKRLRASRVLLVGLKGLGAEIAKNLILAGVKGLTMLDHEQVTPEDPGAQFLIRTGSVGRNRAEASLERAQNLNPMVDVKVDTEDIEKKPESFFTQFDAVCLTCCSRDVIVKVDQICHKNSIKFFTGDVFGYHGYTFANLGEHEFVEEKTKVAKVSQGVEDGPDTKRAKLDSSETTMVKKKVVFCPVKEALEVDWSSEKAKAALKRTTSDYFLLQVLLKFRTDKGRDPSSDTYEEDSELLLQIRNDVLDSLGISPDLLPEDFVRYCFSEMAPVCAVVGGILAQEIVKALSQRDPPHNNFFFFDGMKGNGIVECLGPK
T1 sequence (Q9UBT2 1-640): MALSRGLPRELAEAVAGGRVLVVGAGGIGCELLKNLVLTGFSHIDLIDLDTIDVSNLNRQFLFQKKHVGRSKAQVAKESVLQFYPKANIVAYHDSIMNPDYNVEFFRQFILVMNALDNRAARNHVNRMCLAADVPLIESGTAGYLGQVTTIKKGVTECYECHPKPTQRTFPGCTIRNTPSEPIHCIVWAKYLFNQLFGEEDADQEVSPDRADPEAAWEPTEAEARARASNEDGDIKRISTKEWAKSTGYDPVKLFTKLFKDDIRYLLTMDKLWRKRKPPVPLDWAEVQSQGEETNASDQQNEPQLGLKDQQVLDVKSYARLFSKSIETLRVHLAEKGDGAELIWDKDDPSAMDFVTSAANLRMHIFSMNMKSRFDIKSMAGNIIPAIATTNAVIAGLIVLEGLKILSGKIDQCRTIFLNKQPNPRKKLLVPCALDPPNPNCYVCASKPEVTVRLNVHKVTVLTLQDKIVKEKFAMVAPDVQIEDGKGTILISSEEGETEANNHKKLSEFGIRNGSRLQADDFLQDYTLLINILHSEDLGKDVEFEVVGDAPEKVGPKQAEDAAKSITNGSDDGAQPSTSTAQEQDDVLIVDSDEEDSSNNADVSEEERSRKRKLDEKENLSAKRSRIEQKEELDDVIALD

T2: Kir2.1 channels (Homo sapiens, UniProt P63252)
T2 construct: expressed in transfected cells; host or cells: HEK293T
T2 sequence (P63252 1-427): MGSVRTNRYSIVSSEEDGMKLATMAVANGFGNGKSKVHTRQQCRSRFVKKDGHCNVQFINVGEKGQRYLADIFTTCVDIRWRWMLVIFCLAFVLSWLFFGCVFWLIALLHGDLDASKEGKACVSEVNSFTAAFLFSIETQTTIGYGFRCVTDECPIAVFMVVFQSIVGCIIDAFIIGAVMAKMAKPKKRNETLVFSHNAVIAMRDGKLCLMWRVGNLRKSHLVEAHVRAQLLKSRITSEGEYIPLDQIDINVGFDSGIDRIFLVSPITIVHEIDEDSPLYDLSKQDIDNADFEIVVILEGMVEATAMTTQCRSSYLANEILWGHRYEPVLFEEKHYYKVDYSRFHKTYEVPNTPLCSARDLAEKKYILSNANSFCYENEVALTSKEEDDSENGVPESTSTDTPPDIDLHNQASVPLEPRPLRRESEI


Assays:
[1] = molecular target: T1, SUMO activating enzyme (SAE); conditions: cited from earlier work
Kir2.4 channels = assay: Whole-cell patch-clamp of Kir2.4 currents in transfected HEK293T cells under acute hypoxia; format: cell-based, human
Protocol: Hypoxia diminishes Kir2.4 activity in a TAK981 sensitive manner. HEK293T cells were transiently transfected with plasmid DNA for Kir2.4 channels. Inward rectifying currents were elicited in response to a high [K]^+ (140 mM) buffer using a −80 mV to +80 mV ramp protocol. Following stabilization in the high K^+ buffer, the cells were subjected to a hypoxic (2% O2) perfusate. Acute hypoxia evoked a ˜30% decrease in Kir2.4 currents. Recordings were terminated with the perfusion of 10 mM Ba^2+ (FIGS. 3A, 3B).
Next, we repeated the experiment using that were preincubated with 100 nM TAK981 for one hour. We observed that the hypoxic decrease in Kir2.4 currents was abolished in cells pre-treated with TAK981 (FIGS. 3C, 3D).

Kir2.1 channels = molecular target: T2, Kir2.1 channels; assay: Whole-cell patch-clamp of heterologous Kir2.1 channels in HEK293T cells under hypoxia; format: cell-based; conditions: agent in recording pipette (SENP1 2 μM)
Protocol: To knockdown Kir2.1 expression, RVCMs were transduced with lentiviral particles carrying cGFP and shRNA targeting KCNJ2-mRNA for the channel. Kir2.1 knockdown cells (Kir2.1kd-CMs) were identified by expression of cGFP. Cells were studied with control pipette solution, or with pipette solutions containing purified SUMO1 (1 μM) or SENP1 (2 μM). Where indicated, the control pipette solution contained diC8 PIP2. Paired patch-clamp data were analyzed by Students t-test; ***, P<0.01. […] Kir2.1kd-CMs are identified by expression of GFP (inset, scale bar=10 μm). […] The arrow indicates the change in current-magnitude between exposure to ambient O2 and 2% O2 in the same cell. Right, Concentration-response curve showing that including diC8-PIP2 in the pipette opposes hypoxic-inhibition of IK1 in control RVCMs and RVCMs expressing the scrambled shRNA. The hypoxic-response is diminished in Kir2.1kd-CMs. Data are mean±s.d. for 7-8 cells per condition. […] Current inhibition is diminished when SENP1 is included in the recording pipette and is not observed when SUMO-insensitive Kir2.1-K49Q channels are studied. Data are mean±s.d. for 6 cells per condition.
Hypoxic-inhibition of IK1/Kir2.1 is reduced by diC8-PIP2 in a concentration-dependent manner. We have shown that adding the exogenous, soluble PIP2 analog diC8-PIP2 into the patch-pipette opposes hypoxic-inhibition of IK1 (FIG. 4). […]

Row | effect on hypoxic inhibition of Kir2.1 channels (Kir2.1 channels) | Molecule | SAE / SUMO E1 inhibition [1] | selectivity [1] | effect on hypoxic decrease in Kir2.4 currents (Kir2.4 channels; preincubated with 100 nM for one hour, 2% O2) | tolerability of pretreatment in cells (Kir2.4 channels; pretreating cells)
1 |  | Cc1sc(C(=O)c2cncnc2N[C@@H]2C[C@H](COS(N)(=O)=O)[C@@H](O)C2)cc1[C@@H]1NCCc2ccc(Cl)cc21 [TAK981, Subasumstat] | nM-inhibitor | highly selective | abolished; also recorded: precludes hypoxic inhibition of Kir2 currents | tolerated by the cells
2 | ameliorated | SENP1: purified deSUMOylating enzyme (SUMO specific protease) introduced via the recording pipette or expressed (protein, UniProt Q9P0U3 1-644, looked up) Sentrin-specific protease 1: MDDIADRMRMDAGEVTLVNHNSVFKTHLLPQTGFPEDQLSLSDQQILSSRQGHLDRSFTCSTRSAAYNPSYYSDNPSSDSFLGSGDLRTFGQSANGQWRNSTPSSSSSLQKSRNSRSLYLETRKTSSGLSNSFAGKSNHHCHVSAYEKSFPIKPVPSPSWSGSCRRSLLSPKKTQRRHVSTAEETVQEEEREIYRQLLQMVTGKQFTIAKPTTHFPLHLSRCLSSSKNTLKDSLFKNGNSCASQIIGSDTSSSGSASILTNQEQLSHSVYSLSSYTPDVAFGSKDSGTLHHPHHHHSVPHQPDNLAASNTQSEGSDSVILLKVKDSQTPTPSSTFFQAELWIKELTSVYDSRARERLRQIEEQKALALQLQNQRLQEREHSVHDSVELHLRVPLEKEIPVTVVQETQKKGHKLTDSEDEFPEITEEMEKEIKNVFRNGNQDEVLSEAFRLTITRKDIQTLNHLNWLNDEIINFYMNMLMERSKEKGLPSVHAFNTFFFTKLKTAGYQAVKRWTKKVDVFSVDILLVPIHLGVHWCLAVVDFRKKNITYYDSMGGINNEACRILLQYLKQESIDKKRKEFDTNGWQLFSKKSQEIPQQMNGSDCGMFACKYADCITKDRPINFTQQHMPYFRKRMVWEILHRKLL |  |  |  | 
